This note sets out measurements from patent US4137314A, “7-Dithioacetamido cephalosporins and pharmaceutical compositions and methods employing them having antibacterial activity” (SmithKline Corporation, priority 1977, dated 1979).

Test systems include Pseudo aeruginosa HH63; Kleb. pneumo. SK4200; Serratia marc. ATCC13880; Proteus morgani 179; Kleb. pneumo. SK1200.
Common to all, as to test: MIC, standard agar inclusion method
Assay type in all cases: cell-based

Assay [1] has as its system Shegella paradysenteriae HH117.
The subject of another assay is S. aureus SK23390. To be noted: Staphylococcus aureus.
The next assay concerns Entero. cloacae HH31254. To be noted: Enterobacter cloacae.
The subject of another assay is E. coli HH33779. To be noted: Escherichia coli.
In a further assay the test system is S. aureus Villaluz. To be noted: Staphylococcus aureus.
Another assay deals with S. aureus HH127. To be noted: Staphylococcus aureus.
For assay [2], the system named is Salmonella paratuphi ATCC12176.
For another assay, the system named is Strep. faecalis HH34358. To be noted: Enterococcus faecalis.
A further assay deals with Entero. aerogenes 13048. To be noted: Klebsiella aerogenes.
For the next assay, the system named is E. coli SK12140. To be noted: Escherichia coli.
Where [3] appears, read: Entero. cloacae HH31254, agar inclusion, read-out: MIC.
[4] abbreviates: Entero. aerogenes 13048, agar inclusion, read-out: MIC.

Each structure is given as a SMILES string. Converted amounts (≈) assume the structure as drawn. Like-named read-outs stand apart in the source and are kept apart here.

For orientation: MIC means the least concentration at which growth counts as inhibited.

For the molecule `Cn1nnnc1SCC1=C(C(=O)O)N2C(=O)C(NC(=O)CSSC(F)(F)F)C2SC1` (stereo not drawn) [C], the MIC was 3.1 µg/mL (≈ 6.17 µM) in [1]; 3.1 µg/mL (≈ 6.17 µM) against S. aureus SK23390; 12.5 µg/mL (≈ 24.9 µM) with Entero. cloacae HH31254 (setting [3]); over 100 µg/mL against Pseudo aeruginosa HH63; 25 µg/mL (≈ 49.7 µM) against E. coli HH33779; 6.3 µg/mL (≈ 12.5 µM) against Kleb. pneumo. SK4200. Besides, the MIC in the assay with S. aureus Villaluz was 6.3 µg/mL (≈ 12.5 µM); with S. aureus HH127, 3.1 µg/mL (≈ 6.17 µM); against Serratia marc. ATCC13880, over 100 µg/mL; in assay [2], 6.3 µg/mL (≈ 12.5 µM); in the assay with Proteus morgani 179 (Proteus morgani 179, agar inclusion, read-out: MIC) it was over 100 µg/mL; with Strep. faecalis HH34358, 50 µg/mL (≈ 99.5 µM). The MIC with Entero. aerogenes 13048 (setting [4]) stood at 100 µg/mL (≈ 199 µM); with Kleb. pneumo. SK1200, 3.1 µg/mL (≈ 6.17 µM); in the assay with E. coli SK12140, 12.5 µg/mL (≈ 24.9 µM).
Consider `Cn1nnnc1SCC1=C(C(=O)O)N2C(=O)C(NC(=O)CSSC(Cl)(Cl)Cl)C2SC1` (stereo not drawn) [B, 7-(trichloromethyldithioacetamido)-3-(1-methyltetrazol-5-ylthiomethyl)-3-cephem-4-carboxylic acid], for which the MIC in assay [1] is 12.5 µg/mL (≈ 22.6 µM); against S. aureus SK23390 it was 3.1 µg/mL (≈ 5.62 µM); in the assay with Entero. cloacae HH31254 (HH31254), 12.5 µg/mL (≈ 22.6 µM); with Pseudo aeruginosa HH63, over 200 µg/mL; in the assay with E. coli HH33779, 100 µg/mL (≈ 181 µM); against S. aureus Villaluz it was 50 µg/mL (≈ 90.6 µM). The MIC against S. aureus HH127 is 3.1 µg/mL (≈ 5.62 µM); against Serratia marc. ATCC13880 it was over 200 µg/mL; in assay [2], 6.3 µg/mL (≈ 11.4 µM); with Proteus morgani 179, over 200 µg/mL; with Strep. faecalis HH34358, 50 µg/mL (≈ 90.6 µM); in the assay with Entero. aerogenes 13048 (setting [4]), 100 µg/mL (≈ 181 µM). The MIC in the assay on Kleb. pneumo. SK1200 turned out to be 6.3 µg/mL (≈ 11.4 µM); with E. coli SK12140, 12.5 µg/mL (≈ 22.6 µM).
In the case of `Cc1nnc(SCC2=C(C(=O)O)N3C(=O)[C@@H](NC(=O)Cn4cnnn4)[C@H]3SC2)s1` [Cefazolin, reference compound], the MIC is 0.8 µg/mL (≈ 1.76 µM) in [1]; 0.4 µg/mL (≈ 0.88 µM) with S. aureus SK23390; over 200 µg/mL in the assay with Pseudo aeruginosa HH63; 3.1 µg/mL (≈ 6.82 µM) with E. coli HH33779; 3.1 µg/mL (≈ 6.82 µM) in the assay on Kleb. pneumo. SK4200; 25 µg/mL (≈ 55 µM) in the assay on S. aureus Villaluz. Further, the MIC was 0.4 µg/mL (≈ 0.88 µM) against S. aureus HH127; over 200 µg/mL against Serratia marc. ATCC13880; 1.6 µg/mL (≈ 3.52 µM) in assay [2]; over 200 µg/mL against Proteus morgani 179; 6.3 µg/mL (≈ 13.9 µM) with Strep. faecalis HH34358; 1.6 µg/mL (≈ 3.52 µM) in the assay on Entero. aerogenes 13048 (13048). Also, in the assay on E. coli SK12140, inhibition of growth (MIC) required 1.6 µg/mL (≈ 3.52 µM).
With `CSSCC(=O)NC1C(=O)N2C(C(=O)O)=C(CSc3nnnn3C)CSC12` (stereo not drawn) [A, 7-methyldithioacetamido-3-(1-methyltetrazol-5-yl-thiomethyl)-3-cephem-4-carboxylic acid], the MIC in assay [1] was 0.8 µg/mL (≈ 1.78 µM); in the assay on S. aureus SK23390, 0.4 µg/mL (≈ 0.892 µM); in the assay with Entero. cloacae HH31254 (setting [3]) it was 1.6 µg/mL (≈ 3.57 µM); in the assay on Pseudo aeruginosa HH63, over 200 µg/mL; against E. coli HH33779 it was 6.3 µg/mL (≈ 14 µM); against Kleb. pneumo. SK4200, 3.1 µg/mL (≈ 6.91 µM). Further, the MIC in the assay on S. aureus Villaluz is 6.3 µg/mL (≈ 14 µM); in the assay with S. aureus HH127, 0.4 µg/mL (≈ 0.892 µM); against Serratia marc. ATCC13880, over 200 µg/mL; in assay [2] it was 0.8 µg/mL (≈ 1.78 µM); in the assay on Proteus morgani 179, over 200 µg/mL; against Strep. faecalis HH34358, 12.5 µg/mL (≈ 27.9 µM). For the same molecule, the MIC stood at 3.1 µg/mL (≈ 6.91 µM) with Entero. aerogenes 13048 (setting [4]), 0.8 µg/mL (≈ 1.78 µM) in the assay on Kleb. pneumo. SK1200 and 3.1 µg/mL (≈ 6.91 µM) in the assay on E. coli SK12140.
For `CSSCC(=O)NC1C(=O)N2C(C(=O)O)=C(COC(C)=O)CSC12` (stereo not drawn) [D, 7-(methyldithioacetamido)-cephalosporanic acid], the MIC was 1.6 µg/mL (≈ 4.08 µM) in assay [1]; 0.2 µg/mL (≈ 0.51 µM) in the assay on S. aureus SK23390; 25 µg/mL (≈ 63.7 µM) in the assay on Entero. cloacae HH31254 (setting [3]); over 200 µg/mL with Pseudo aeruginosa HH63; 12.5 µg/mL (≈ 31.8 µM) against E. coli HH33779; 3.1 µg/mL (≈ 7.9 µM) against Kleb. pneumo. SK4200. Besides, the MIC is 3.1 µg/mL (≈ 7.9 µM) with S. aureus Villaluz; 0.2 µg/mL (≈ 0.51 µM) in the assay on S. aureus HH127; over 200 µg/mL against Serratia marc. ATCC13880; 6.3 µg/mL (≈ 16.1 µM) in assay [2]; over 200 µg/mL in the assay on Proteus morgani 179; 12.5 µg/mL (≈ 31.8 µM) in the assay on Strep. faecalis HH34358. The MIC in the assay on Entero. aerogenes 13048 (setting [4]) is 25 µg/mL (≈ 63.7 µM); in the assay with Kleb. pneumo. SK1200, 3.1 µg/mL (≈ 7.9 µM); in the assay on E. coli SK12140, 6.3 µg/mL (≈ 16.1 µM).
